This assay has as its target recombinant HCV NS5B (HCV RNA-dependent RNA polymerase) (Hepatitis C virus genotype 1b, UniProt P26663). As to the kind of experiment: biochemical.
Where [1] appears, read: related polymerase activity (Example 27 list), read-out: IC50.
[2] abbreviates: HCV polymerase activity, list of compounds of Example 27, read-out: IC50 (polymerase activity).

pIC50: −log10 of the molar value. Where two headings read alike, the source gives them in different places.

Chain of recombinant HCV NS5B (HCV RNA-dependent RNA polymerase) (P26663 2420-3010 limits assumed): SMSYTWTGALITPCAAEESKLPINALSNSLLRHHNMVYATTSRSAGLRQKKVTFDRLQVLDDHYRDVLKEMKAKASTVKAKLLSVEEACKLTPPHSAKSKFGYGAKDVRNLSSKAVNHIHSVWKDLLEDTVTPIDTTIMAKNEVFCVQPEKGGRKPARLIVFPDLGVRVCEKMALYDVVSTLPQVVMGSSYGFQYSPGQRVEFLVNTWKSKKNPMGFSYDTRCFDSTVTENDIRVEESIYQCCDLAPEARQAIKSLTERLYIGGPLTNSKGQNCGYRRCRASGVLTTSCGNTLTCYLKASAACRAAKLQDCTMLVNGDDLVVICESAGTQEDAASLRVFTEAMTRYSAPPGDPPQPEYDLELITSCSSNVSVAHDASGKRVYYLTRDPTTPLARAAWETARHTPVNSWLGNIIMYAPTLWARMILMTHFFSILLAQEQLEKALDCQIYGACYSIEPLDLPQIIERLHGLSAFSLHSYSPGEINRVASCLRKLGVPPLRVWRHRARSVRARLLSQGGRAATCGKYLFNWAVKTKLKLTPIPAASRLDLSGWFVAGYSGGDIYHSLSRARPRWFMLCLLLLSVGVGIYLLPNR

As usually defined, the pIC50 is the negative decadic logarithm of the IC50, by convention in mol/L. For the compound `CC1CCCCC1C(=O)N(c1cc(-c2ccccc2)sc1C(=O)O)C(C)C` (centres unmarked) [Compound 379, 3-[ISOPROPYL-(2-METHYL- CYCLOHEXANECARBONYL)-AMINO]-5- PHENYL-THIOPHENE-2-CARBOXYLIC ACID], the pIC50 under setting [1] is 4.70 to 5.30.

Regarding `CC(C)N(C(=O)C1CCCCCC1)c1cc(-c2ccccc2)sc1C(=O)O` [Compound 380, 3-(CYCLOHEPTANECARBONYL- ISOPROPYL-AMINO)-5-PHENYL- THIOPHENE-2-CARBOXYLIC ACID], the pIC50 under setting [1] is > 5.30.

As to `CC1CCC(C(=O)N(c2cc(-c3cccc(C(F)(F)F)c3)sc2C(=O)O)C(C)C)CC1` (centres unmarked) [Compound 381, 3-[ISOPROPYL-(4-METHYL- CYCLOHEXANECARBONYL)-AMINO]-5-(3- TRIFLUOROMETHYL-PHENYL)- THIOPHENE-2-CARBOXYLIC ACID], under setting [1], the pIC50 was > 5.30.

As to `Cc1cc(N(C(=O)c2ccc(Cl)cc2Cl)C(C)C)c(C(=O)O)s1` [Compound 382, 3-[(2,4-DICHLORO-BENZOYL)- ISOPROPYL-AMINO]-5-METHYL- THIOPHENE-2-CARBOXYLIC ACID], the pIC50 under setting [1] is > 5.30.

Consider `CC1CCC(C(=O)N(c2cc(-c3cccc([N+](=O)[O-])c3)sc2C(=O)O)C(C)C)CC1` (centres unmarked) [Compound 383, 3-[ISOPROPYL-(4-METHYL- CYCLOHEXANECARBONYL)-AMINO]-5-(3- NITRO-PHENYL)-THIOPHENE-2- CARBOXYLIC ACID], for which the pIC50 under setting [1] is > 5.30.

As for `CN(C(=O)CCC1CCCC1)c1cc(-c2ccccc2)sc1C(=O)O` [Compound 384, 3-[(3-CYCLOPENTYL-PROPIONYL)- METHYL-AMINO]-5-PHENYL-THIOPHENE- 2-CARBOXYLIC ACID], the pIC50 under setting [1] was > 5.30.

On to `CCCC(=O)N(C)c1cc(-c2ccccc2)sc1C(=O)O` [Compound 385, 3-(BUTYRYL-METHYL-AMINO)-5-PHENYL- THIOPHENE-2-CARBOXYLIC ACID], for which the pIC50 under setting [1] is 4.70 to 5.30.

For the compound `C=CCCC(=O)N(C)c1cc(-c2ccccc2)sc1C(=O)O` [Compound 386, 3-(METHYL-PENT-4-ENOYL-AMINO)-5- PHENYL-THIOPHENE-2-CARBOXYLIC ACID], under setting [1], the pIC50 is 4.70 to 5.30.

Regarding `CCCCC(=O)N(C)c1cc(-c2ccccc2)sc1C(=O)O` [Compound 389, 3-(METHYL-PENTANOYL-AMINO)-5- PHENYL-THIOPHENE-2-CARBOXYLIC ACID], the pIC50 under setting [1] is > 5.30.

`CC(C)CCC(=O)N(C)c1cc(-c2ccccc2)sc1C(=O)O` [Compound 390, 3-[METHYL-(4-METHYL-PENTANOYL)- AMINO]-5-PHENYL-THIOPHENE-2- CARBOXYLIC ACID]: the pIC50 under setting [1] is 4.70 to 5.30.

As for `CCN(C(=O)C1CCCC1)c1cc(-c2ccccc2)sc1C(=O)O` [Compound 391, 3-(CYCLOPENTANECARBONYL-ETHYL- AMINO)-5-PHENYL-THIOPHENE-2- CARBOXYLIC ACID], the pIC50 under setting [1] is 4.70 to 5.30.

Consider `CCN(C(=O)CCC1CCCC1)c1cc(-c2ccccc2)sc1C(=O)O` [Compound 392, 3-[(3-CYCLOPENTYL-PROPIONYL)- ETHYL-AMINO]-5-PHENYL-THIOPHENE-2- CARBOXYLIC ACID], for which the negative logarithm of the IC50 (pIC50) under setting [1] is > 5.30.

For `CCN(C(=O)C1CCC1)c1cc(-c2ccccc2)sc1C(=O)O` [Compound 393, 3-(CYCLOBUTANECARBONYL-ETHYL- AMINO)-5-PHENYL-THIOPHENE-2- CARBOXYLIC ACID], the pIC50 under setting [1] was 4.70 to 5.30.

As to `C/C=C/C(=O)N(CC)c1cc(-c2ccccc2)sc1C(=O)O` [Compound 394, 3-(BUT-2-ENOYL-ETHYL-AMINO)-5- PHENYL-THIOPHENE-2-CARBOXYLIC ACID], under setting [1], the pIC50 is 4.70 to 5.30.

As to `C=Cc1cc(C)ccc1C(=O)N(c1cc(-c2ccccc2)sc1C(=O)O)C(C)C` [Compound 395, 3-[ISOPROPYL-(4-METHYL-2-VINYL- BENZOYL)-AMINO]-5-PHENYL- THIOPHENE-2-CARBOXYLIC ACID], the pIC50 under setting [1] was 4.70 to 5.30.

Turning to `C=CCN(C(=O)CCCCC)c1cc(-c2ccccc2)sc1C(=O)O` [Compound 397, 3-(ALLYL-HEXANOYL-AMINO)-5-PHENYL- THIOPHENE-2-CARBOXYLIC ACID], the pIC50 under setting [1] was 4.70 to 5.30.

Consider `C=CCN(C(=O)C1CCC1)c1cc(-c2ccccc2)sc1C(=O)O` [Compound 398, 3-(ALLYL-CYCLOBUTANECARBONYL- AMINO)-5-PHENYL-THIOPHENE-2- CARBOXYLIC ACID], for which, under setting [1], the pIC50 is < 4.70.

As to `C=CCN(C(=O)CCCC)c1cc(-c2ccccc2)sc1C(=O)O` [Compound 399, 3-(ALLYL-PENTANOYL-AMINO)-5- PHENYL-THIOPHENE-2-CARBOXYLIC ACID], under setting [2], the pIC50 was 4.70 to 5.30.

`C=CCN(C(=O)CCC(C)C)c1cc(-c2ccccc2)sc1C(=O)O` [Compound 400, 3-[ALLYL-(4-METHYL-PENTANOYL)- AMINO]-5-PHENYL-THIOPHENE-2- CARBOXYLIC ACID]: the pIC50 under setting [2] was 4.70 to 5.30.

Turning to `C=CCN(C(=O)CC1CCCC1)c1cc(-c2ccccc2)sc1C(=O)O` [Compound 401, 3-[ALLYL-(2-CYCLOPENTYL-ACETYL)- AMINO]-5-PHENYL-THIOPHENE-2- CARBOXYLIC ACID], the pIC50 under setting [2] is > 5.30.

With `CC1CCC(C(=O)N(c2cc(-c3ccccc3)sc2C(=O)O)C(C)C)C(O)C1` (centres unmarked) [Compound 402, 3-[(2-HYDROXY-4-METHYL- CYCLOHEXANECARBONYL)-ISOPROPYL- AMINO]-5-PHENYL-THIOPHENE-2- CARBOXYLIC ACID], under setting [2], the pIC50 is > 5.30.

For the compound `CC(c1ccccc1)N(C(=O)c1ccc(Cl)cc1Cl)c1cc(-c2ccccc2)sc1C(=O)O` (centres unmarked) [Compound 403, 3-[(2,4-DICHLORO-BENZOYL)-(1-PHENYL- ETHYL)-AMINO]-5-PHENYL-THIOPHENE- 2-CARBOXYLIC ACID], the pIC50 under setting [2] is > 5.30.

Turning to `CC1=CCC(C(=O)N(c2cc(-c3ccccc3)sc2C(=O)O)C(C)C)C1` (centres unmarked) [Compound 405, 3-[ISOPROPYL-(3-METHYL-CYCLOPENT- 3-ENECARBONYL)-AMINO]-5-PHENYL- THIOPHENE-2-CARBOXYLIC ACID], the pIC50 under setting [2] is > 5.30.

Regarding `Cc1ccc(C(=O)N(c2cc(-c3cccc(C(F)(F)F)c3)sc2C(=O)O)C(C)C)c(OCc2ccccc2)c1` [Compound 406, 3-[(2-BENZLOXY-4-METHYL-BENZOYL)- ISOPROPYL-AMINO]-5-(3- TRIFLUOROMETHYL-PHENYL)- THIOPHENE-2-CARBOXYLIC ACID], under setting [2], the pIC50 was > 5.30.

Turning to `CC1CCC(C(=O)N(c2cc(-c3ccccc3)sc2C(=O)O)C(C)C)C(C)C1` (centres unmarked) [Compound 407, 3-[(2,4-DIMETHYL- CYCLOHEXANECARBONYL)-ISOPROPYL- AMINO]-5-PHENYL-THIOPHENE-2- CARBOXYLIC ACID], the pIC50 under setting [2] is > 5.30.

With `CC1CCC(C(=O)N(c2cc(-c3ccccc3)sc2C(=O)O)C(C)C)C1` (centres unmarked) [Compound 408, 3-[ISOPROPYL-(3-METHYL- CYCLOPENTANECARBONYL)-AMINO]-5- PHENYL-THIOPHENE-2-CARBOXYLIC ACID], the negative-log IC50 (pIC50) under setting [2] is 4.70 to 5.30.

On to `CC1CCC(C(=O)N(c2cc(-c3ccccc3)sc2C(=O)O)C(C)C)C(O)C1` (centres unmarked) [Compound 409, 3-[(2-HYDROXY-4-METHYL- CYCLOHEXANECARBONYL)-ISOPROPYL- AMINO]-5-PHENYL-THIOPHENE-2- CARBOXYLIC ACID], for which the pIC50 under setting [2] is > 5.30.

Turning to `CCC(=O)N(Cc1ccc(C(F)(F)F)cc1)c1cc(-c2ccccc2)sc1C(=O)O` [Compound 410, 5-PHENYL-3-[PROPIONYL-(4- TRIFLUOROMETHYL-BENZYL)-AMINO]- THIOPHENE-2-CARBOXYLIC ACID], under setting [2], the pIC50 was 4.70 to 5.30.

For the compound `CC(C)C(=O)N(Cc1ccc(C(F)(F)F)cc1)c1cc(-c2ccccc2)sc1C(=O)O` [Compound 411, 3-[ISOBUTYRYL-(4-TRIFLUOROMETHYL- BENZYL)-AMINO]-5-PHENYL-THIOPHENE- 2-CARBOXYLIC ACID], the pIC50 under setting [2] is 4.70 to 5.30.

As to `CC(C)CC(=O)N(Cc1ccc(C(F)(F)F)cc1)c1cc(-c2ccccc2)sc1C(=O)O` [Compound 412, 3-[(3-METHYL-BUTYRYL)-(4- TRIFLUOROMETHYL-BENZYL)-AMINO]-5- PHENYL-THIOPHENE-2-CARBOXYLIC ACID], under setting [2], the pIC50 is 4.70 to 5.30.

As for `O=C(O)c1sc(-c2ccccc2)cc1N(Cc1ccc(C(F)(F)F)cc1)C(=O)C1CC1` [Compound 413, 3-[CYCLOPROPANECARBONYL-(4- TRIFLUOROMETHYL-BENZYL)-AMINO]-5- PHENYL-THIOPHENE-2-CARBOXYLIC ACID], the pIC50 under setting [2] was 4.70 to 5.30.

On to `O=C(O)c1sc(-c2ccccc2)cc1N(Cc1ccc(C(F)(F)F)cc1)C(=O)C1CCC1` [Compound 414, 3-[CYCLOBUTANECARBONYL-(4- TRIFLUOROMETHYL-BENZYL)-AMINO]-5- PHENYL-THIOPHENE-2-CARBOXYLIC ACID], for which, under setting [2], the pIC50 is 4.70 to 5.30.

As for `CCCC(=O)N(Cc1ccc(C(F)(F)F)cc1)c1cc(-c2ccccc2)sc1C(=O)O` [Compound 415, 3-[BUTYRYL-(4-TRIFLUOROMETHYL- BENZYL)-AMINO]-5-PHENYL-THIOPHENE- 2-CARBOXYLIC ACID], the negative-log IC50 (pIC50) under setting [2] was 4.70 to 5.30.

Consider `O=C(O)c1sc(-c2ccccc2)cc1N(Cc1ccc(C(F)(F)F)cc1)C(=O)CC1CCCC1` [Compound 416, 3-[(2-CYCLOPENTYL-ACETYL)-(4- TRIFLUOROMETHYL-BENZYL)-AMINO]-5- PHENYL-THIOPHENE-2-CARBOXYLIC ACID], for which the pIC50 under setting [2] was 4.70 to 5.30.

For `CCC(=O)N(Cc1ccc(C(C)(C)C)cc1)c1cc(-c2ccccc2)sc1C(=O)O` [Compound 417, 3-[(4-TERT-BUTYL-BENZYL)-PROPIONYL- AMINO]-5-PHENYL-THIOPHENE-2- CARBOXYLIC ACID], under setting [2], the pIC50 is 4.70 to 5.30.

In the case of `CCC(=O)N(Cc1ccc([N+](=O)[O-])cc1)c1cc(-c2ccccc2)sc1C(=O)O` [Compound 418, 3-[(4-NITRO-BENZYL)-PROPIONYL- AMINO]-5-PHENYL-THIOPHENE-2- CARBOXYLIC ACID], the pIC50 under setting [2] was 4.70 to 5.30.

`CC(C)CC(=O)N(Cc1ccc([N+](=O)[O-])cc1)c1cc(-c2ccccc2)sc1C(=O)O` [Compound 419, 3-[(3-METHYL-BUTYRYL)-(4-NITRO- BENZYL)-AMINO]-5-PHENYL-THIOPHENE- 2-CARBOXYLIC ACID]: the pIC50 under setting [2] was > 5.30.

As to `O=C(O)c1sc(-c2ccccc2)cc1N(Cc1ccc([N+](=O)[O-])cc1)C(=O)C1CC1` [Compound 420, 3-[CYCLOPROPANECARBONYL-(4- NITRO-BENZYL)-AMINO]-5-PHENYL- THIOPHENE-2-CARBOXYLIC ACID], under setting [2], the pIC50 is 4.70 to 5.30.

For the origin of these results see patent US6881741B2 (ViroChem Pharma Inc., priority 2001, dated 2005).
